Broadly, the LD50 is the dose at which mortality reaches 50%.

Where a name gives a salt, the structure may show the parent alone.

This is an account of results in US3956068A, “Antibiotic G-52 and method for the production thereof” (Schering Corporation, priority 1975, dated 1976).

Series [1] concerns Staphylococcus aureus A.T.C.C. 6538P. In words: Microbiological assay, standard disc plate assay. The note with it: against the standard antibiotic base (1000 mcg/mg). It is filed as cell-based. The text has this:
6538P as the test organism.

The test system of a further series is Escherichia coli 11775. In words: In vitro antibacterial activity, minimum inhibitory concentration. It is filed as cell-based. The note with it: Tryptose phosphate broth at pH 7.2. The text has this:
(§1) In vitro Antibacterial Activity
(§2) Minimum Inhibitory Concentration
(§3) Test Medium: Tryptose phosphate broth at pH 7.2.

For another series, the system named is Escherichia coli 578. The description is as above. It is filed as cell-based. The note with it: Tryptose phosphate broth at pH 7.2.
Description: as §1, §2, §3

Series [2] deals with Klebsiella pneumoniae Ad 17 - kR. The description is as above. The settings on record: Tryptose phosphate broth at pH 7.2. It is filed as cell-based.
Description: as §1, §2, §3

The subject of a further series is Proteus mirabilis 8019. Described as above. It is filed as cell-based. The note with it: Tryptose phosphate broth at pH 7.2.
Description: as §1, §2, §3

The test system of series [3] is Pseudomonas aeruginosa 130 - GR. The series is described as above. It is filed as cell-based. The note with it: Tryptose phosphate broth at pH 7.2.
Description: as §1, §2, §3

For series [4], the system named is Pseudomonas aeruginosa 236 - GR. Described as above. It is filed as cell-based. The note with it: Tryptose phosphate broth at pH 7.2.
Description: as §1, §2, §3

For series [5], the system named is Salmonella paratyphi 13311. The series is described as above. The settings on record: Tryptose phosphate broth at pH 7.2. It is filed as cell-based.
Description: as §1, §2, §3

For series [6], the system named is Staphylococcus aureus 209P. The series is described as above. The settings on record: Tryptose phosphate broth at pH 7.2. It is filed as cell-based.
Description: as §1, §2, §3

The subject of another series is Staphylococcus aureus 45. The series is described as above. It is filed as cell-based. The note with it: Tryptose phosphate broth at pH 7.2.
Description: as §1, §2, §3

The next series has as its system Streptococcus pyogenes C. The series is described as above. It is filed as cell-based. The settings on record: Tryptose phosphate broth at pH 7.2.
Description: as §1, §2, §3

The next series relates to Escherichia coli. In words: In vivo protective activity in mice. Further details: species or system Mice (Carworth Farms CF-1). The note with it: S.C., single dose of antibiotic (sulfate) 1 hour after intraperitoneal infection, survivors at 48 hours. As to the method: (§4) In vivo Activity of Antibiotic G-52 in Mice
(§5) ^a Mice (Carworth Farms CF-1 weighing about 18 - 20 grams) are treate
(§6) with a single dose of antibiotic (sulfate) one (1) hour after an
(§7) intraperitoneal infection with a lethal (10^7 organisms) quantity of
(§8) the infectious organism. The number of survivors are determined 48 hours
(§9) after infection and the data analyzed by standard probit procedures to
(§10) determine the PD50 values with 95% confidence limits.

A further series concerns Pseudomonas aeruginosa. In words: In vivo protective activity in mice. Further details: species or system Mice (Carworth Farms CF-1). The settings on record: S.C., single dose of antibiotic (sulfate) 1 hour after intraperitoneal infection, survivors at 48 hours. As to the method: as §4, §5, §6, §7, §8, §9, §10
In series [7] the test system is Staphylococcus aureus Gray. In words: In vivo protective activity in mice. On the set-up: species or system Mice (Carworth Farms CF-1). The note with it: S.C., single dose of antibiotic (sulfate) 1 hour after intraperitoneal infection, survivors at 48 hours. How it is done: as §4, §5, §6, §7, §8, §9, §10
For another series, the system named is mice (CF-1). In words: Acute toxicity in mice. It is filed as in vivo. The settings on record: sulfate salt. How it is done: ^b The acute toxicity of Antibiotic G-52 in the form of the sulfate
salt is determined in the standard manner by administration of the
antibiotic to mice (CF-1) intravenously, subcutaneously and
intraperitoneally. The results are analyzed by standard probit procedures
to determine the LD50 values with 95% confidence limits.

A short description of series [8]: Stability to boiling in buffer. It is filed as physicochemical. From the text:
Further, the antibiotic is stable to boiling for at least thirty (30) minutes in MacIlvaines buffer from pH 2 - 8 and in sodium hydroxide-boric acid buffer from pH 8 - 10.

With `CNCC1=CCC(N)C(OC2C(N)CC(N)C(OC3OCC(C)(O)C(NC)C3O)C2O)O1` (centres unmarked) [Antibiotic G-52 sulfate], the “potency (microbiological assay)” value in [1] was “about 675 mcg/mg”; in series [1] (listed as Antibiotic G-52 Sulfate) it was 660 mcg/mg.

As for `CNCC1=CC[C@@H](N)[C@@H](O[C@H]2[C@H](O)[C@@H](O[C@H]3OC[C@](C)(O)[C@H](NC)[C@H]3O)[C@H](N)C[C@@H]2N)O1` [Antibiotic G-52], the “Minimum Inhibitory Concentration (MIC)” value came out at 3.0 µg/mL in the series on Escherichia coli 11775; 7.5 µg/mL with Escherichia coli 578; 0.8 µg/mL in [2]; 7.5 µg/mL with Proteus mirabilis 8019; 25 µg/mL in [3]; 25 µg/mL in series [4]. Also, the “Minimum Inhibitory Concentration (MIC)” value is 17.5 µg/mL in series [5], 0.3 µg/mL in series [6], 0.8 µg/mL with Staphylococcus aureus 45 and 25 µg/mL in the series on Streptococcus pyogenes C. For the same compound, the results for the PD50 (in the series with Escherichia coli; in the series with Pseudomonas aeruginosa; in series [7]) were 2.5 mg/kg, 1.5 mg/kg and 2.5 mg/kg, respectively. Further, the LD50 in the series with mice (CF-1) (I.P.) amounted to 200 mg/kg; in the series on mice (CF-1) (I.V.) it was 50 mg/kg; in the series with mice (CF-1) (S.C.) it was 400 mg/kg. In addition, the “potency (microbiological assay)” value in series [1] (listed as Antibiotic G-52 Base) is “about 1000 mcg/mg”. The stable to boiling was at least 30 min in series [8] (MacIlvaines buffer, pH 2 - 8) and at least 30 min in series [8] (sodium hydroxide-boric acid buffer, pH 8 - 10). In addition, the “solubility in polar organic solvents” value in “Solubility” (lower alcohols, dimethylformamide, dimethylsulfoxide, pyridine) is “some degree of solubility in most polar organic solvents”. Besides, in “Solubility” (water), the solubility in water entry was “very soluble in water”.
